Reference: US20110245242A1, “Heterocyclically Substituted Anilinopyrimides” (Bayer CropScience AG, priority 2008, published 2011)
Read-outs that look alike come from different tables or passages of the source. Marks after values point to notes of the source that are not given here.

What was measured:
[1] = log P by HPLC on reversed-phase columns (C 18), method [a], acidic range pH 2.3; assay type: physicochemical; conditions: for log p: pH 2.3
Description: The log P values were measured in accordance with EEC Directive 79/831 Annex V.A8 by HPLC (High Performance Liquid Chromatography) on reversed-phase columns (C 18) using the methods below: [a] The determination was carried out in the acidic range at pH 2.3 using the mobile phases 0.1% aqueous phosphoric acid and acetronitrile linear gradient from 10% acetonitrile to 95% acetronitrile.

Fusarium proliferatum = test: Production of Fumonisin FB1 by Fusarium proliferatum (microtitre plates; FB1 by HPLC-MS/MS, growth by OD620); assay type: cell-based; conditions: for pI50 Fum: FB1 concentration in liquid medium after 6 days at 20° C., HPLC-MS/MS; for pI50 growth: OD620 at the beginning and after 6 days
[2] = log P by LC-MS, method [b], acid range pH 2.7; assay type: physicochemical; conditions: pH 2.7
Description: The log P values were measured in accordance with EEC Directive 79/831 Annex V.A8 by HPLC (High Performance Liquid Chromatography) on reversed-phase columns (C 18) using the methods below:
[b] The LC-MS determination in the acid range was carried out at pH 2.7 using the mobile phases 0.1% aqueous formic acid and acetonitrile (contains 0.1% formic acid)
linear gradient from 10% acetonitrile to 95% acetonitrile.

Sphaerotheca fuliginea = test: Sphaerotheca test (cucumber)/protective; assay type: in vivo; conditions: Podosphaera fuliginea, 168 h, active compound concentration of 500 ppm, protective, evaluation 7 days after the inoculation, read-out: efficacy
physchem = assay type: physicochemical; conditions: pH 7.8
Description: The log P values were measured in accordance with EEC Directive 79/831 Annex V.A8 by HPLC (High Performance Liquid Chromatography) on reversed-phase columns (C 18) using the methods below: [c] The LC-MS determination in the neutral range was carried out at pH 7.8 using the mobile phases 0.001 molar aqueous ammonium bicarbonate solution and acetonitrile linear gradient from 10% acetonitrile to 95% acetonitrile.

[3] = assay type: physicochemical
Description: The log P values were measured in accordance with EEC Directive 79/831 Annex V.A8 by HPLC (High Performance Liquid Chromatography) on reversed-phase columns (C 18) using the methods below: […]

SMILES	pI50 Fum (Fusarium proliferatum)	pI50 growth (Fusarium proliferatum)	log p [2]	other results
CCC1COC(=O)N1c1cccc(Nc2ncc(Cl)c(NC3CC3)n2)c1 (stereo not drawn) [Example 31]	6.3	5.7		log p [1]: 1.86[a]
CC1COC(=O)N1c1cccc(Nc2ncc(C(F)(F)F)c(NC3CC3)n2)c1 (stereo not drawn) [Example 19]	6.2		2.4[b]	
CC(C)Nc1nc(Nc2cccc(N3CCOC3=O)c2)ncc1Br [Example 146]		5	1.63[b]	
CCOC1CCC(=O)N1c1cccc(Nc2ncc(Cl)c(NC3CC3)n2)c1 (stereo not drawn) [Example 106, 1-(3-{[5-Chloro-4-(cyclopropylamino)pyrimidin-2-yl]amino}phenyl)-5-ethoxypyrrolidin-2-one]				chromatographic logP ([1]; pH 2.3, log P (pH 2.3)): 1.65; chromatographic logP ([1]; pH 2.3, log p): 1.65; pest or weed control at 500 ppm (Sphaerotheca fuliginea): ≥ 70%
CC1CC(=O)N(c2cccc(Nc3ncc(Br)c(NC4CCC4)n3)c2)C1=O (stereo not drawn) [Example 73]	6.4	5.8	1.9[b]	
CC1CCN(c2cccc(Nc3ncc(Br)c(NC4CC4)n3)c2)C1=O (stereo not drawn) [Example 187]	6.3	5.8	1.87[b]	log p (physchem): 2.83[c];
CCC1=C(C)CN(c2cccc(Nc3ncc(Cl)c(NC4CC4)n3)c2)C1=O [Example 224]	6	5.3		log p [1]: 2.2[a]
CN(c1nc(Nc2ccc(F)c(N3CCCC3=O)c2)ncc1Cl)C1CC1 [Example 198]	5.5	4.8	2.53[b]	log p (physchem): 2.92[c];
CC1(C)CC(=O)N(c2cccc(Nc3ncc(C(F)(F)F)c(NCC4CC4)n3)c2)C1=O [Example 196]	5.3	4.8	2.81[b]	
COCC(=O)N(c1cccc(N2CCCC2=O)c1)c1ncc(Cl)c(NC2CC2)n1 [Example 231, N-[5-Chloro-4-(cyclopropylamino)pyrimidin-2-yl]-2-methoxy-N-[3-(2-oxopyrrolidin-1-yl)phenyl]acetamide]				chromatographic logP ([1]; pH 2.3, log P (pH 2.3)): 1.87; pest or weed control at 500 ppm (Sphaerotheca fuliginea): ≥ 70%; chromatographic logP (physchem): 1.82; chromatographic logP [2]: 1.87
CC1CC1Nc1nc(Nc2cccc(N3CCCC3=O)c2)ncc1Cl (stereo not drawn) [Example 200]	4.8	4.7	1.72[b]	
CC(C)Nc1nc(Nc2cccc(N3C(=O)OCC3C)c2)ncc1Cl (stereo not drawn) [Example 139]	5	5	1.64[b]	
O=C1CCC(=O)N1c1cc(Nc2ncc(C(F)(F)F)c(NC3CC3)n2)ccc1Cl [Example 119, 1-(2-Chloro-5-{[4-(cyclopropylamino)-5-(trifluoromethyl)pyrimidin-2-yl]amino}phenyl)pyrrolidine-2,5-dione]				chromatographic logP ([1]; pH 2.3, log P (pH 2.3)): 2.49; pest or weed control at 500 ppm (Sphaerotheca fuliginea): ≥ 70%; chromatographic logP [2]: 2.49
O=C1CCC(=O)N1c1cccc(Nc2ncc(Cl)c(NC3CCC3)n2)c1 [Example 203]			1.48[b];	log p (physchem): 2.32[c];; log p [3]: 1.24[d]
CC1COC(=O)N1c1cccc(Nc2ncc(Br)c(NC3CCC3)n2)c1 (stereo not drawn) [Example 56]	6.2	5.6		log p [1]: 1.97[a]
CC1CCC(=O)N1c1cccc(Nc2ncc(Br)c(NC3CC3)n2)c1 (stereo not drawn) [Example 60]	6.3	5.5	1.72[b]	log p [1]: 1.72[a];
CC1(C)CC(=O)N(c2cccc(Nc3ncc(C(F)(F)F)c(NC4CC4)n3)c2)C1=O [Example 62]	6.2	5.7		log p [1]: 2.63[a]
CC1CC(=O)N(c2cccc(Nc3ncc(Cl)c(NC4CC4)n3)c2)C1=O (stereo not drawn) [Example 65]	6.2	5.7	1.59[b]	
C[C@H]1COC(=O)N1c1cccc(Nc2ncc(Cl)c(NC3CC3)n2)c1 [Example 92]	6.6	5.7	1.54[b]	log p (physchem): 2.42[c];
O=CN(c1cccc(N2CCCC2=O)c1)c1ncc(Cl)c(NC2CC2)n1 [Example 217, N-[5-Chloro-4-(cyclopropylamino)pyrimidin-2-yl]-N-[3-(2-oxopyrrolidin-1-yl)phenyl]-formamide]				chromatographic logP ([1]; pH 2.3, log P (pH 2.3)): 1.22; pest or weed control at 500 ppm (Sphaerotheca fuliginea): ≥ 70%; chromatographic logP [2]: 1.49
CC1COC(=O)N1c1cccc(Nc2ncc(Br)c(NCC3CC3)n2)c1 (stereo not drawn) [Example 131]	6	5.3	1.75[b]	
